# “Also recorded” adds a separate entry of the source.
# Test system: patients with schizophrenia
# Test: international, multicenter, double-blind, placebo- and risperidone-controlled, fixed-dose clinical study
# Type: in vivo, human
# Details: for improvement on the PANSS factor score for negative symptoms, subpopulation with predominantly negative symptoms compared to ITT population: 6 week period, risperidone 4 mg/day, FIG. 1-4
# Source text: In the clinical study beside the ITT (intent to treat) population which included the total number of the patients, a subgroup was identified including patients with predominantly negative symptoms. This subgroup was identical with the patient subpopulation showing severe negative symptoms defined by Lenert et al. (Schizophrenia Research 71 (2004) 155-165). Patients showing severe negative symptoms were separated into two groups: State 4 and State 6 (definitions are described in Example). State 4 and State 6 together represent the patient subpopulation with predominantly negative symptoms.
# The term “change from baseline” refers to the change of the value of the PANSS factor score for negative symptoms compared to the value registered before treatment started (at the baseline visit). The values were calculated using least squares method. The least squares mean (LSM) values resulted from the analysis of covariance (ANCOVA) model with treatment group and study center as factors and the baseline PANSS factor score of negative symptoms as the covariate.
# PANSS factor score for negative symptoms: Sum of scores for items 1, 2, 3, 4, and 6 in negative subscale: blunted affect, emotional withdrawal, poor rapport, passive social withdrawal, lack of spontaneity; and items 7 and 16 in general psychopathology subscale: motor retardation, and active social avoidance. Higher scores indicate worsening.
# A representative clinical study was conducted as an international, multicenter, double-bind, placebo- and risperidone-controlled, fixed-dose trial. The objective of the study was to evaluate the safety and efficacy of cariprazine fixed doses in patients with schizophrenia. A total of 732 patients were selected using criteria that includes patients who (i) currently meet or have met in the past the Diagnostic and Statistical Manual of Mental Disorders, Fourth Edition, Text Revision (DSM-IV-TR) criteria for schizophrenia (295.30 Paranoid Type, 295.10 Disorganized Type, 295.20 Catatonic Type, or 295.90 Undifferentiated Type) based on the Structured Clinical Interview for DSM-IV (SCID), (ii) have a PANSS total score ≧80 and ≦120, (iii) have a score ≧4 on Clinical Global Impression-Severity scale (iv) have a score ≧4 on at least 2 of the following 4 PANSS positive symptoms: delusions, hallucinatory behavior, conceptual disorganization, and suspiciousness/persecution.
# During a 6 week period, 3 doses of cariprazine (1.5 mg/day, 3 mg/day, 4.5 mg/day) was compared to placebo and to an effective dose of risperidone (4.0 mg/day).
# Beside the ITT (intent to treat) population which included the total number of the patients, a subgroup was identified including patients with predominantly negative symptoms. […]
SMILES,"improvement on the PANSS factor score for negative symptoms, subpopulation with predominantly negative symptoms compared to ITT population (cariprazine 1.5, 3, 4.5 mg/day)",effect on primary negative symptoms of schizophrenia (conclusion from the clinical study of the Example),"effect of extrapyramidal symptoms (EPS) on the change of PANSS factor score for negative symptoms (week 6, patients with predominantly negative symptoms vs subgroup without EPS, cariprazine 1.5, 3, 4.5 mg/day, FIG. 5)"
"CN(C)C(=O)N[C@H]1CC[C@H](CCN2CCN(c3cccc(Cl)c3Cl)CC2)CC1 [cariprazine, trans-4-{2-[4-(2,3-dichlorophenyl)-piperazin-1-yl]-ethyl}-N,N-dimethylcarbamoyl-cyclohexylamine]",numerically higher improvement,can be treated effectively; also recorded: direct effect on negative symptoms,does not seem to be influenced by the treatment emergent EPS
"Cc1nc2n(c(=O)c1CCN1CCC(c3noc4cc(F)ccc34)CC1)CCCC2 [risperidone, reference compound]",no difference,,

# Source: US20150306094A1, “TRANS-4--N,N-DIMETHYLCARBAMOYL-CYCLOHEXYLAMINE FOR TREATING NEGATIVE SYMPTOMS OF SCHIZOPHRENIA” (RICHTER GEDEON NYRT., priority 2012, published 2015)
